From US4564619A, “Carbostyril derivative” (Otsuka Pharmaceutical Co., Ltd., priority 1982, dated 1986)

Experiments:
[1] = Change of blood pressure, intravenous administration, anesthetized dog; format: in vivo; set-up: unit not given here; conditions: femoral artery
Experimental: (§1) The change of blood flow in coronary artery and the change of blood pressure were measured by a method according to Yakura et al., [Japan Journal of Pharmacology, Vol. 57, pages 380-391 (1961)] and according to Taira, et al. [Clin. Exp. Pharmacol. Physiol., Vol. 6, pages 301-316, (1976)].
(§2) An adult bastard dog of either sex weighing 8-13 kg was anesthetized with sodium pentobarbital at the rate of 30 mg/kg by intraveneous administration, then the dog was fixed in supination and was theracotomized under a condition of forced breathing. After another intraveneous administration of sodium heparin at the rate of 500 U/kg, 100 U/kg per hour, the dog was subjected to the following experiments.
(§3) (2) Intraveneous administration
(§4) Morawitz's cannula was cannulated to the coronary sinus venosus through the auricula dextra cordis, and the blood in vein was circulated to the right carotid. The blood flow was measured by an electromagnetic blood flow meter equipped with a blood flow observation probe in the extracorporeal circulation path of the vein. The systolic force was measured by a systolometer (pick-up) placed at the left ventricle of heart, the blood pressure was measured from the femoral artery, and the heart rate was measured from the pulse. A compound to be tested was administered through the cannula being cannulated in femoral vein. The increased amount of the blood flow in coronary artery after the administration of the test compound is shown in Table 4, also the change of blood pressure is shown in Table 5.

[2] = test system: ADP-induced aggregation in rabbit platelets; assay: Inhibition of ADP-induced platelet aggregation in rabbit platelet rich plasma; format: cell-based; conditions: Oryctolagus cuniculus, read-out: Inhibition rate of ADP-induced aggregation; for inhibition at 100 µM (stock): Concentration of the test compound solution 10^-4 mole
Experimental: (§5) The platelet aggregation inhibitory effect was measured by using a Platelet Aggregation Tracer Model PAT-6M (manufactured by Nikoh Bio-Science Co., Ltd.) by a method according to Kimura, et al., [IGAKU-NO-AYUMI (Progress in Medicine), Vol. 114, No. 9, pp. 718-727, Aug. 30, 1980, and Nature, pp. 927-929, 1962].
(§6) The blood sample used for the test was a 1:9 (by volume) mixture of "3.8%-CITRATE"® (a registered trademark for 3.8%-sodium citrate, manufactured by Green Cross Corp.) and whole blood collected from rabbits. Said sample was subjected to 10-minute centrifugal separation at 1,000 r.p.m. (200xG) to obtain a platelet rich plasma (PRP). The PRP thus obtained was separated, and the remaining blood sample was further subjected to 15-minute centrifugal separation at 3,000 r.p.m. (2,000xG) to obtain a platelet poor plasma (PPP).
(§7) The number of platelets in the PRP was counted by the Brecher-Clonkite Method, and the PRP was diluted with the PPP to prepare a PRP sample with a platelet concentration of 600,000/microliter to prepare for an adenosine diphosphate (ADP)-induced aggregation test, and a collagen-induced aggregation test. 0.2 Milliliter of the PRP sample was added to 2 microliters of a solution of a test compound of predetermined concentration and this mixture was placed in a 37° C. thermostat for one minute. Then 20 microliters of an ADP or collagen solution was added to the mixture. In this test, the ADP solution was prepared by adjustment to a concentration of 7.5×10^-5 M by using Auren-Beronal buffer solution (pH 7.35). Further, the collagen solution was prepared by adjustment to a concentration of 200 micrograms/ml by using collagen reagent of "Holm"® (manufactured by Hormon-Chemie Munchen, GmbH.) which was diluted wih a physiological saline solution.
(§8) The transmittance of the resultant test mixture was determined and the change of transmittance was recorded by using the aggregometer at a stirrer speed of 1,100 r.p.m.
(§9) The platelet aggregation inhibitory effect of the test compound was measured in terms of inhibition rate (%) with respect to the aggregation rate of the controls. The aggregation rate was calculated from the following formula.
(§10) Aggregation rate=[(c-a)/(b-a)]×100
(§11) The percent inhibition is calculated from the following formula.
(§12) Inhibition rate (%)=[(A-B)/A]×100
(§13) The inhibitory effect of the test compounds on collagen-induced aggregation in rabbit platelets is shown in Table 1, similarly such effect on ADP-induced aggregation in rabbit platelets is shown in Table 2.

coronary artery = assay: Increased amount of the blood flow in coronary artery, intravenous administration, anesthetized dog; format: in vivo
Experimental: as §1, §2, §3, §4

[3] = test system: collagen-induced aggregation in rabbit platelets; assay: Inhibition of collagen-induced platelet aggregation in rabbit platelet rich plasma; format: cell-based; conditions: Oryctolagus cuniculus, read-out: Inhibition rate of collagen-induced aggregation; for inhibition at 100 µM (stock): Concentration of the test compound solution 10^-4 mole; for inhibition at 10 µM (stock): Concentration of the test compound solution 10^-5 mole
Experimental: as §5, §6, §7, §8, §9, §10, §11, §12, §13

Structure (SMILES)	Change of blood pressure ([1]; 10 micrograms/kg)	Change of blood pressure ([1]; 30 micrograms/kg)	Change of blood pressure ([1]; 100 micrograms/kg)	Change of blood pressure ([1]; 300 micrograms/kg)	Change of blood pressure ([1]; 3 micrograms/kg)	inhibition at 100 µM (stock) [2]	inhibition at 100 µM (stock) [3]	also measured
COC(=O)C1=C(C)NC(C)=C(C(=O)OCCCCOc2cccc3c2CCC(=O)N3)C1c1cccc([N+](=O)[O-])c1 (centres unmarked) [Compound 17, 5-{4-[2,6-Dimethyl-5-methoxycarbonyl-4-(3-nitrophenyl)-1,4-dihydropyridin-3-carboxy]-butoxy}-3,4-dihydrocarbostyril]	-4	-14	-55	-76				
COC(=O)C1=C(C)NC(C)=C(C(=O)OCCOc2ccc3c(c2)NC(=O)CC3)C1c1cccc([N+](=O)[O-])c1 (centres unmarked) [Compound 14, 7-{2-[2,6-Dimethyl-5-methoxycarbonyl-4-(3-nitrophenyl)-1,4,-dihydropyridin-3-carboxy]-ethoxy}-3,4-dihydrocarbostyril]		-2	-14	-32				
COC(=O)C1=C(C)NC(C)=C(C(=O)OCCOc2cccc3c2NC(=O)CC3)C1c1cccc([N+](=O)[O-])c1 (centres unmarked) [Compound 13, 8-{2-[2,6-Dimethyl-5-methoxycarbonyl-4-(3-nitrophenyl)-1,4-dihydropyridin-3-carboxy]-ethoxy}-3,4-dihydrocarbostyril]	-16	-32	-52		-7			
C#CCOc1ccc(OCCCOC(=O)C2=C(C)NC(C)=C(C(=O)OC)C2c2cccc([N+](=O)[O-])c2)c2c1NC(=O)CC2 (centres unmarked) [Compound 12, 5-{3-[2,6-Dimethyl-5-methoxycarbonyl-4-(3-nitrophenyl)-1,4-dihydropyridin-3-carboxy]-propoxy}-8-(2-propynyloxy)-3,4-dihydrocarbostyril]	-5	-23	-49			14%		Increased amount of the blood flow in coronary artery (coronary artery; 3 micrograms/kg): 5 mL/min; Increased amount of the blood flow in coronary artery (coronary artery; 10 micrograms/kg): 30 mL/min; Increased amount of the blood flow in coronary artery (coronary artery; 30 micrograms/kg): 74 mL/min; Increased amount of the blood flow in coronary artery (coronary artery; 100 micrograms/kg): 63 mL/min
COC(=O)C1=C(C)NC(C)=C(C(=O)OCCCCOc2ccc3c(c2)CCC(=O)N3)C1c1ccc(Cl)cc1Cl (centres unmarked) [Compound 42, 6-{4-[2,6-Dimethyl-5-methoxycarbonyl-4-(2,4-dichlorophenyl)-1,4-dihydropyridin-3-carboxy]butoxy}-3,4-dihydrocarbostyril]						26%	39%	
COC(=O)C1=C(C)NC(C)=C(C(=O)OCC(COc2ccc3c(c2)CCC(=O)N3)OC(C)=O)C1c1cccc([N+](=O)[O-])c1 (centres unmarked) [Compound 23, 6-{3-[2,6-Dimethyl-5-methoxycarbonyl-4-(3-nitrophenyl)-1,4-dihydropyridin-3-carboxy]-2-acetoxypropoxy}-3,4-dihydrocarbostyril]						79%	100%	inhibition at 10 µM (stock) [3]: 29%; inhibition at 10 µM (stock) ([2]; Concentration of the test compound solution 10^-5 mole): 29%
COC(=O)C1=C(C)NC(C)=C(C(=O)OCCCCOc2ccc3c(c2)CCC(=O)N3)C1c1cc(OC)c(OC)c(OC)c1 (centres unmarked) [Compound 41, 6-{4-[2,6-Dimethyl-5-methoxycarbonyl-4-(3,4,5-trimethoxyphenyl)-1,4-dihydropyridin-3-carboxy]butoxy}-3,4-dihydrocarbostyril]						30%	35%	
COC(=O)C1=C(C)NC(C)=C(C(=O)OCCCCOc2ccc3c(c2)CCC(=O)N3)C1c1cccc([N+](=O)[O-])c1 (centres unmarked) [Compound 16, 6-{4-[2,6-Dimethyl-5-methoxycarbonyl-4-(3-nitrophenyl)-1,4-dihydropyridin-3-carboxy]-butoxy}-3,4-dihydrocarbostyril]	-12	-27		-54	-3			
CCCOc1ccc(OCCCOC(=O)C2=C(C)NC(C)=C(C(=O)OC)C2c2cccc([N+](=O)[O-])c2)c2c1NC(=O)CC2 (centres unmarked) [Compound 11, 5-{3-[2,6-Dimethyl-5-methoxycarbonyl-4-(3-nitrophenyl)-1,4-dihydropyridin-3-carboxy]-propoxy}-8-propoxy-3,4-dihydrocarbostyril]	-18	-33	-41	-48	-5	11%		Increased amount of the blood flow in coronary artery (coronary artery; 3 micrograms/kg): 7 mL/min; Increased amount of the blood flow in coronary artery (coronary artery; 10 micrograms/kg): 26 mL/min; Increased amount of the blood flow in coronary artery (coronary artery; 30 micrograms/kg): 58 mL/min; Increased amount of the blood flow in coronary artery (coronary artery; 100 micrograms/kg): 56 mL/min; Increased amount of the blood flow in coronary artery (coronary artery; 300 micrograms/kg): 73 mL/min
COC(=O)C1=C(C)NC(C)=C(C(=O)OCCCCOc2ccc3c(c2)CCC(=O)N3)C1c1ccc(OC)c(OC)c1 (centres unmarked) [Compound 40, 6-{4-[2,6-Dimethyl-5-methoxycarbonyl-4-(3,4-dimethoxyphenyl)-1,4-dihydropyridin-3-carboxy]butoxy}-3,4-dihydrocarbostyril]						14%	15%	
COC(=O)C1=C(C)NC(C)=C(C(=O)OCCCCOc2ccc3c(c2)CCC(=O)N3)C1c1ccccc1C(F)(F)F (centres unmarked) [Compound 25, 6-{4-[2,6-Dimethyl-5-methoxycarbonyl-4-(2-trifluoromethylphenyl)-1,4-dihydropyridin-3-carboxy]butoxy}-3,4-dihydrocarbostyril]	-34	-46			-9			
COC(=O)C1=C(C)NC(C)=C(C(=O)OCC(O)COc2ccc3c(c2)CCC(=O)N3)C1c1cccc([N+](=O)[O-])c1 (centres unmarked) [Compound 39, 6-{3-[2,6-Dimethyl-5-methoxycarbonyl-4-(3-nitrophenyl)-1,4-dihydropyridin-3-carboxy]-2-hydroxypropoxy}-3,4-dihydro-carbostyril]						76%	100%	inhibition at 10 µM (stock) [3]: 19%
